Assay [1] has as its system TNF-alpha. Put plainly: TNF-alpha ELISA in differentiated THP-1 cells infected with P. aeruginosa DNA. The class given is cell-based, human. Particulars: 6 micrograms P. aeruginosa DNA, 24 hours post infection; DNA alone 1,200. How it is done: 3 sets of differentiated THP-1 cells were infected with 6 micrograms of […], 6 micrograms of P. aeruginosa DNA and composition A from Table 1, above, 6 micrograms of P. aeruginosa DNA and moxifloxacin, or 6 micrograms of P. aeruginosa DNA, moxifloxacin and composition A. 24 hours post infection the cells were assayed for TNF-alpha protein levels via ELISA. Results of this study can be found in FIGS. 3A and 3B.

Assay [2] deals with TNF-alpha. Put plainly: TNF-alpha ELISA in differentiated THP-1 cells infected with A. flavus DNA. The class given is cell-based, human. Particulars: 6 micrograms A. flavus DNA, 24 hours post infection; DNA alone 180. From the text:
Tumor Necrosis Factor alpha secretion (“TNF-alpha”) is a marker for DNA-induced inflammation. See, Campbell et al., CpG-containing immunostimulatory DNA sequences elicit TNF-alpha-dependent toxicity in rodents but not in humans, 2009, J Clin Invest, 119(9), 2564-2576. 3 sets of differentiated human leukemia monocytic (“differentiated THP-1”) cells were infected with 6 micrograms of A. flavus DNA, 6 micrograms of A. flavus DNA and composition A, 6 micrograms of A. flavus DNA and voriconazole, or 6 micrograms of A. flavus DNA, voriconazole and composition A. 24 hours post infection the cells were assayed for TNF-alpha protein levels via enzyme-linked immunosorbent assays (“ELISA”). Results of this study can be found in FIGS. 2A and 2B.
6 sets of differentiated THP-1 cells were infected with 1) nothing, 2) lipofectamine™ 2000 transfectin reagent, 3) 6 micrograms of A. flavus DNA, 4) 6 micrograms of A. flavus DNA and composition #1 from Table 1, above, 5) 6 micrograms of A. flavus DNA and composition #2 from Table 1, above, 6) 6 micrograms of A. flavus DNA and composition #3 from Table 1, above. 24 hours post infection the cells were assayed for TNF-alpha protein levels via ELISA.

Assay [3] relates to free DNA. Put plainly: Free DNA binding, ethidium bromide displacement assay. Particulars: incubated with free DNA in a petri dish. As for the experimental part:
Voriconazole, moxifloxacin, composition A from Table 1, above, a combination of voriconazole and composition A and a combination of moxifloxacin and composition A were each individually incubated with free DNA in a petri dish with and without the addition of voriconazole or moxifloxacin. The percentage of free DNA bound was measured using an ethidium bromide displacement assay. See results in FIG. 1.
Compositions #1-3 from Table 1, above, were each individually incubated with free DNA in a petri dish at concentrations of 1% and 10% in PBS buffer. The percentage of free DNA bound was measured using an ethidium bromide displacement assay.

In the case of `COc1c(N2C[C@@H]3CCCN[C@@H]3C2)c(F)cc2c(=O)c(C(=O)O)cn(C3CC3)c12` [moxifloxacin], the TNF-alpha protein levels in assay [1] is 450 picograms per milliliter. For `C[C@@H](c1ncncc1F)[C@](O)(Cn1cncn1)c1ccc(F)cc1F` [voriconazole], the TNF-alpha protein levels in assay [2] stood at 85 picograms per milliliter. Besides, the “percentage of free DNA bound” value in assay [3] is 0%.

The values are drawn from patent US20260216063A1, “METHODS OF SUPPRESSING FREE DNA AND COMPOSITIONS THEREOF” (PS Therapy, Inc., priority 2023, published 2026).
